Data reported in ChEMBL document CHEMBL4613324, “Design, Synthesis, and Evaluation of a Series of Novel Super Long-Acting DPP-4 Inhibitors for the Treatment of Type 2 Diabetes” (J Med Chem, 2020).

Experiments:
[1] = Clearance in ICR mouse at 0.5 mg/kg, iv measured after 0.0833 to 120 hrs by LC-MS-MS analysis; assay type: ADME, organism-based; conditions: in vivo
[2] = Oral bioavailability in ICR mouse at 2 mg/kg measured after 0.0833 to 120 hrs by LC-MS-MS analysis; assay type: ADME, organism-based; conditions: in vivo
[3] = biological target: Dipeptidyl peptidase 4 (Mus musculus) (UniProt P28843); assay: Ex-vivo inhibition of DPP4 in plasma isolated from ob/ob mouse treated at 3 to 30 mg/kg, po measured after 2 to 72 hrs by fluorescence based assay; assay type: functional, organism-based
[4] = biological target: Dipeptidyl peptidase 4 (Mus musculus) (UniProt P28843); assay: Ex-vivo inhibition of DPP4 in plasma isolated from ob/ob mouse assessed as time duration during which DPP4 inhibition rate stays above 80% treated at 30 mg/kg, po measured after 2 to 72 hrs by fluorescence based assay; assay type: functional, organism-based
Rhesus monkey = assay: Ex-vivo inhibition of DPP4 in plasma isolated from rhesus monkey treated at 10 mg/kg, ig after 12 days by fluorescence based assay relative to control; assay type: functional; conditions: Macaca mulatta, po, 288 h
Dipeptidyl peptidase 8 = Dipeptidyl peptidase 8 (Homo sapiens, UniProt Q6V1X1); assay: Inhibition of human recombinant DPP8 incubated for 15 mins using Gly-Pro-7-AMC substrate
Dipeptidyl peptidase 9 = Dipeptidyl peptidase 9 (Homo sapiens, UniProt Q86TI2); assay: Inhibition of human recombinant DPP9 incubated for 15 mins using Gly-Pro-7-AMC substrate
CYP2A6 = CYP2A6 (Homo sapiens, UniProt P11509); assay: Stability assessed as recombinant human CYP2A6 mediated compound metabolism by measuring parent compound remaining after 30 mins relative to control; assay type: ADME; conditions: read-out: Stability
CYP2C8 = CYP2C8 (Homo sapiens, UniProt P10632); assay: Stability assessed as recombinant human CYP2C8 mediated compound metabolism by measuring parent compound remaining after 30 mins relative to control; assay type: ADME; conditions: read-out: Stability
CYP2C9 = CYP2C9 (Homo sapiens, UniProt P11712); assay: Stability assessed as recombinant human CYP2C9 mediated compound metabolism by measuring parent compound remaining after 30 mins relative to control; assay type: ADME; conditions: read-out: Stability
CYP3A4 = CYP3A4 (Homo sapiens, UniProt P08684); assay: Stability assessed as recombinant human CYP3A4 mediated compound metabolism by measuring parent compound remaining after 30 mins relative to control; assay type: ADME; conditions: read-out: Stability
Cytochrome P450 1A2 [5] = biological target: T1, Cytochrome P450 1A2 (Homo sapiens, UniProt P05177); assay: (§1) Inhibition of recombinant human CYP1A2; assay type: ADME
T1 sequence (P05177 whole entry): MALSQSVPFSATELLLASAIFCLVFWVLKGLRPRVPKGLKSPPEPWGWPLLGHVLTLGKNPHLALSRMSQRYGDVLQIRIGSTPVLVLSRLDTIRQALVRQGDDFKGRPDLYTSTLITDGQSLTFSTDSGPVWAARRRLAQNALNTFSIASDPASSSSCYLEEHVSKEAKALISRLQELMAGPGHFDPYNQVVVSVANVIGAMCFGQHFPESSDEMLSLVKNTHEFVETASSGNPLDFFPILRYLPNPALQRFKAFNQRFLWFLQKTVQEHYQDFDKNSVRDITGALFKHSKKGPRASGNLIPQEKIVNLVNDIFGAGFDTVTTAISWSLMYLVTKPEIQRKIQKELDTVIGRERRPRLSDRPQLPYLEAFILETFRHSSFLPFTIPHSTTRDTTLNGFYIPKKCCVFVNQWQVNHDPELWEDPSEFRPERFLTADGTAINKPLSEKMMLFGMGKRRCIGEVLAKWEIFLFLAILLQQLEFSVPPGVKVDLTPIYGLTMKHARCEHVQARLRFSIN

Cytochrome P450 2C9 [6] = biological target: T2, Cytochrome P450 2C9 (Homo sapiens, UniProt P11712); assay: (§2) Inhibition of recombinant human CYP2C9; assay type: ADME
Cytochrome P450 2C19 [7] = biological target: T3, Cytochrome P450 2C19 (Homo sapiens, UniProt P33261); assay: (§3) Inhibition of recombinant human CYP2C19; assay type: ADME
Cytochrome P450 2E1 = Cytochrome P450 2E1 (Homo sapiens, UniProt P05181); assay: Inhibition of recombinant human CYP2E1; assay type: ADME
Cytochrome P450 3A4 = Cytochrome P450 3A4 (Homo sapiens, UniProt P08684); assay: Inhibition of recombinant human CYP3A4 using midazolam as substrate; assay type: ADME
Cytochrome P450 1A2 [8] = biological target: T1, Cytochrome P450 1A2; assay: as §1; assay type: ADME; remark: listed apart in the source
Cytochrome P450 2C8 = biological target: T4, Cytochrome P450 2C8 (Homo sapiens, UniProt P10632); assay: Inhibition of recombinant human CYP2C8; assay type: ADME
T4 sequence (P10632 whole entry): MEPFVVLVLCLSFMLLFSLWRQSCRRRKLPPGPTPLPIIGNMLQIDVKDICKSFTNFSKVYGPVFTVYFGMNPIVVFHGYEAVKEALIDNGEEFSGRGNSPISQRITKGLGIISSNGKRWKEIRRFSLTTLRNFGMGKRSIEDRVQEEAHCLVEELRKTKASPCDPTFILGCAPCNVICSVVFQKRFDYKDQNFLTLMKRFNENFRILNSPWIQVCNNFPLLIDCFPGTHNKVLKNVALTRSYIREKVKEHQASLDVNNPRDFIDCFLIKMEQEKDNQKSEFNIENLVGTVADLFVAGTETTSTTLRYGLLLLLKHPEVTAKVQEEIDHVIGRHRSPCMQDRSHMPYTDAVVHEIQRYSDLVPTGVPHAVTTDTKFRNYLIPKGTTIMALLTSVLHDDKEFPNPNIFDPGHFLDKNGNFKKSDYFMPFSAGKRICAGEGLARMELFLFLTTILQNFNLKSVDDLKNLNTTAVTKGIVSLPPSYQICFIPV

Cytochrome P450 3A5 [9] = biological target: T5, Cytochrome P450 3A5 (Homo sapiens, UniProt P20815); assay: Inhibition of recombinant human CYP3A5 using midazolam as substrate; assay type: ADME
Cytochrome P450 1A2 [10] = biological target: T1, Cytochrome P450 1A2; assay: as §1; assay type: ADME; remark: listed apart in the source
Cytochrome P450 2A6 = biological target: T6, Cytochrome P450 2A6 (Homo sapiens, UniProt P11509); assay: Inhibition of recombinant human CYP2A6; assay type: ADME
T6 sequence (P11509 whole entry): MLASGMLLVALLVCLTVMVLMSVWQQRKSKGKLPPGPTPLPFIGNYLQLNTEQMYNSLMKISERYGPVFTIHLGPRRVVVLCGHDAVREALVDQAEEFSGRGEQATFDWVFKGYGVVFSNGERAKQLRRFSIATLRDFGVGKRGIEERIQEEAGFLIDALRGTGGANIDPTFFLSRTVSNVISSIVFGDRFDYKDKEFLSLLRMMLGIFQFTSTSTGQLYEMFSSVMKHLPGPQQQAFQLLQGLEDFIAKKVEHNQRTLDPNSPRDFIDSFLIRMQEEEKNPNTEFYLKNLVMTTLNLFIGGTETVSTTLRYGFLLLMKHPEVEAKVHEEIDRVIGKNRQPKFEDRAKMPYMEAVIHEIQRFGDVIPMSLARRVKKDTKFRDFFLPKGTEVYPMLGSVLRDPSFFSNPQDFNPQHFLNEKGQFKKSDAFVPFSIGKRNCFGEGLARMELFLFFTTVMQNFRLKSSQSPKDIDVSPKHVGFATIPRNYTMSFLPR

Cytochrome P450 2C9 [11] = biological target: T2, Cytochrome P450 2C9; assay: as §2; assay type: ADME; remark: listed apart in the source
Cytochrome P450 2C19 [12] = biological target: T3, Cytochrome P450 2C19; assay: as §3; assay type: ADME; remark: listed apart in the source
Cytochrome P450 3A5 [13] = biological target: T5, Cytochrome P450 3A5; assay: Inhibition of recombinant human CYP3A5 using testosterone as substrate; assay type: ADME
[14] = AUC in male Sprague-Dawley rat during 3-month repeated dose toxicology study; assay type: ADME; conditions: in vivo
[15] = AUC in T2D patient; assay type: ADME; conditions: human, in vivo
Mus musculus = assay: Antidiabetic activity in ob/ob mouse assessed as reduction in decrease in HbA1c level at 1 mg/kg, po dosed once every three days for 31 day relative to control; assay type: functional; parameters: scale not given: the % may be the effect or the level left

Dipeptidyl peptidase 4 (Mus musculus), sequence (P28843 whole entry, looked up): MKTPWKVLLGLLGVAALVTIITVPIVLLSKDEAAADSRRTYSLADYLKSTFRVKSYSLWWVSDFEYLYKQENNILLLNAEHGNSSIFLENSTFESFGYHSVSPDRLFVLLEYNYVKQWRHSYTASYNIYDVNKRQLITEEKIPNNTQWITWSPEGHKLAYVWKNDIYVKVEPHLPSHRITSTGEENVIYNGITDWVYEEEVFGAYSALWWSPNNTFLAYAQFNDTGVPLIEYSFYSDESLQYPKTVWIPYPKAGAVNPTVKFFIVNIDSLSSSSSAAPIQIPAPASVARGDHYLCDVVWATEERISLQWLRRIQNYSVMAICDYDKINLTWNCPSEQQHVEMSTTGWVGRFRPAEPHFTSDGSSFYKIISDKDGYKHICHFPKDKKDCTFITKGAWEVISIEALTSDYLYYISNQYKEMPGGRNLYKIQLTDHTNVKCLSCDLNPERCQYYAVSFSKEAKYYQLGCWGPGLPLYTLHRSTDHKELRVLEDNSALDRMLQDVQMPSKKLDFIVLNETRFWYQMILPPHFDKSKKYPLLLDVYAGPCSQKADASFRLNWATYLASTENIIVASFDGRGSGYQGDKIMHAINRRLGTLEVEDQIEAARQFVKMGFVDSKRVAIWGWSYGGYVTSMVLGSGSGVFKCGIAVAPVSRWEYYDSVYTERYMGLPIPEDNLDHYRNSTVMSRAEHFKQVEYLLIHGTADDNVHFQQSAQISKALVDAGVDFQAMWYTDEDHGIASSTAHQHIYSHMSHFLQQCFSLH
T2 sequence (P11712 whole entry): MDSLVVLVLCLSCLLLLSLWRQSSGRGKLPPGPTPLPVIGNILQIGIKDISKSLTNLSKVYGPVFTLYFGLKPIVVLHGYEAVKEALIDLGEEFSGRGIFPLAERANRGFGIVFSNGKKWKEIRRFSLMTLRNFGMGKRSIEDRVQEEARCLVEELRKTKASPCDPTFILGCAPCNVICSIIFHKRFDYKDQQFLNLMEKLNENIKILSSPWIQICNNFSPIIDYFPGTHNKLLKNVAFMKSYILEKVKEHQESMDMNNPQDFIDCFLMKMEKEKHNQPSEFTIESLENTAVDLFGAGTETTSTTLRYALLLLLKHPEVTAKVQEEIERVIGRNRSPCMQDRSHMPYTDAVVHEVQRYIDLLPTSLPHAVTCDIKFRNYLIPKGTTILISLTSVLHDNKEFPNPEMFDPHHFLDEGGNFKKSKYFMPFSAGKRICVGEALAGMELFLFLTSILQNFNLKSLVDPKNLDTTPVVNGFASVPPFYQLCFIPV
T3 sequence (P33261 whole entry): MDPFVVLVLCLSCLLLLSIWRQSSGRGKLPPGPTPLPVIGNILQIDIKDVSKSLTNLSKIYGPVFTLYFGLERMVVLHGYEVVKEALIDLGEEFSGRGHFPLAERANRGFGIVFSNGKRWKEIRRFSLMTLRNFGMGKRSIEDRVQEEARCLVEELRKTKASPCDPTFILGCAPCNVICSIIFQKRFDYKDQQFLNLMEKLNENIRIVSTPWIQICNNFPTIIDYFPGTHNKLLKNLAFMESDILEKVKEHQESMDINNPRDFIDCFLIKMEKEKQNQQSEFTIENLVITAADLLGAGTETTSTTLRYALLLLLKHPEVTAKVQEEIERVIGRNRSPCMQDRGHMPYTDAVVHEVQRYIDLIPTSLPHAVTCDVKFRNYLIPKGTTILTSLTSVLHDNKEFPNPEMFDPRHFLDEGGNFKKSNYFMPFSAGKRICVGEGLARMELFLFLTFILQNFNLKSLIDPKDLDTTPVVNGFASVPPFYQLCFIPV
T5 sequence (P20815 whole entry): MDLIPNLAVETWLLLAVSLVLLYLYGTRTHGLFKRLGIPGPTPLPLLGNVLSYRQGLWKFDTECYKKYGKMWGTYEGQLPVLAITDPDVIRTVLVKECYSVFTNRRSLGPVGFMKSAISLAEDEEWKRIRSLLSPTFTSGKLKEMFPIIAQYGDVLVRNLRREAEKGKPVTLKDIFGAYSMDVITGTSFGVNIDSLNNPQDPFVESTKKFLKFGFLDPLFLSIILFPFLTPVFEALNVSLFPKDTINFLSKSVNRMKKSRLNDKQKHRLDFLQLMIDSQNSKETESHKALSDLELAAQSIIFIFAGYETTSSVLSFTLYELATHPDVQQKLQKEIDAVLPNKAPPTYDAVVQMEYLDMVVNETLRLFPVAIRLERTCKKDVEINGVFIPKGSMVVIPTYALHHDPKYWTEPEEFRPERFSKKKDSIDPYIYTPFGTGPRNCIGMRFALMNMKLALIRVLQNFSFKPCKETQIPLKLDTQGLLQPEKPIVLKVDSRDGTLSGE
CYP2C9, sequence (P11712 whole entry): as the sequence (P11712 whole entry) above
Cytochrome P450 2E1, sequence (P05181 whole entry): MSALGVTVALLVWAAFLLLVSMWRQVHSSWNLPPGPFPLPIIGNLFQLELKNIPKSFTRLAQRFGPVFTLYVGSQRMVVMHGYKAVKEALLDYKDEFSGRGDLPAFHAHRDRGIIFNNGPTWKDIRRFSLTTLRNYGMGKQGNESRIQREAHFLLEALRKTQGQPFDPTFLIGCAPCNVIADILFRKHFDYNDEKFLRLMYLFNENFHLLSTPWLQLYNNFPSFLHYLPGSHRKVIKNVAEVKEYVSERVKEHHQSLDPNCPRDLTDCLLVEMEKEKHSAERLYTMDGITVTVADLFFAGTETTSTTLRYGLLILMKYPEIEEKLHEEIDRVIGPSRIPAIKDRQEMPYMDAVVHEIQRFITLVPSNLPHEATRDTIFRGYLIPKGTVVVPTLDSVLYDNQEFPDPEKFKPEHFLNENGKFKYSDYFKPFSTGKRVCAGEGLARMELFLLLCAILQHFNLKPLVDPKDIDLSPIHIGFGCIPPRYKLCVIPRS
Cytochrome P450 3A4, sequence (P08684 whole entry): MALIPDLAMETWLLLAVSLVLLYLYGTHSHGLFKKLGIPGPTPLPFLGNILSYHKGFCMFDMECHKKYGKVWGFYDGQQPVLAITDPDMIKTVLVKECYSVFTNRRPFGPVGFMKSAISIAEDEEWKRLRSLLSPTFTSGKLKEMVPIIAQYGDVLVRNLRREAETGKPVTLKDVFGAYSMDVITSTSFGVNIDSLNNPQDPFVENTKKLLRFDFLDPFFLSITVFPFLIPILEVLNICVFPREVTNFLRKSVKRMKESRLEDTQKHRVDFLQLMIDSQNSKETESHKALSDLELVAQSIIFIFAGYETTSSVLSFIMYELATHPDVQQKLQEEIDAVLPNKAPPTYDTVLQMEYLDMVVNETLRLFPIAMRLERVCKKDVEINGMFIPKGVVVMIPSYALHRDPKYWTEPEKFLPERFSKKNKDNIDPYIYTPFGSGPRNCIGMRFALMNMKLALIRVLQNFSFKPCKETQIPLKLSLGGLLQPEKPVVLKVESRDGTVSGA
CYP3A4, sequence (P08684 whole entry): as above
Dipeptidyl peptidase 8, sequence (Q6V1X1 whole entry): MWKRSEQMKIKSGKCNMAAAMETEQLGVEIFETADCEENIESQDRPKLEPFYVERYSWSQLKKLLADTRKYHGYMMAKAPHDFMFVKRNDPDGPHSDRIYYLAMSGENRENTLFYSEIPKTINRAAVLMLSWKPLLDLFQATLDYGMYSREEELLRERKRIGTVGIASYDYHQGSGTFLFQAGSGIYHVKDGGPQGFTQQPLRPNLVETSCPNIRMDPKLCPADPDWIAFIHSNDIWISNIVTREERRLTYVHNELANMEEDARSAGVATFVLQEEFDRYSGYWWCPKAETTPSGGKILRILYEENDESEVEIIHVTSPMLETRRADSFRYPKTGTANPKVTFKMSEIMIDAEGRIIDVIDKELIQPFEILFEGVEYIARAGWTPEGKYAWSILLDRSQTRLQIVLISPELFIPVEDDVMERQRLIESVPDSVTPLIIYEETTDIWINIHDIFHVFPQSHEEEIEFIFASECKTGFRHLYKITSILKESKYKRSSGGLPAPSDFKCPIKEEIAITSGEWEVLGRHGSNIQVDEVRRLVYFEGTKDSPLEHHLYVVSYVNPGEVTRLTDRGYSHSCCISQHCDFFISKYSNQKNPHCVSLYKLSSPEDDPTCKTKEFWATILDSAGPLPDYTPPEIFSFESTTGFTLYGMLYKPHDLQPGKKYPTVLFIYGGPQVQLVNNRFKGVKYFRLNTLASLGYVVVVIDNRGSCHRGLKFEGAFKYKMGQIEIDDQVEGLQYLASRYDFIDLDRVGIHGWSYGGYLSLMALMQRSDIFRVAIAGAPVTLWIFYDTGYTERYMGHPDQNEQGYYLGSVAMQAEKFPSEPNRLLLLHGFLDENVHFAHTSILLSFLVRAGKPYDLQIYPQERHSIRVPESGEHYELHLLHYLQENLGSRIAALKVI

## CS(=O)(=O)n1cc2c(n1)CN([C@@H]1C[C@H](N)[C@@H](c3cc(F)ccc3F)O[C@@H]1C(F)(F)F)C2 [COFROGLIPTIN]
[1]
  clearance: 2.57 mL/min/kg
[2]
  bioavailability: 62.2%
[3]
  inhibition: Dose-dependent effect
[4]
  TIME: 72 h
Rhesus monkey
  inhibition in vivo at 10 mg/kg: > 80%
Dipeptidyl peptidase 8
  IC50: > 100 µM
Dipeptidyl peptidase 9
  IC50: > 100 µM
CYP2A6
  remaining at 0.5 h: > 95%
CYP2C8
  remaining at 0.5 h: > 95%
CYP2C9
  remaining at 0.5 h: > 95%
CYP3A4
  remaining at 0.5 h: > 95%
Cytochrome P450 1A2 [5]
  IC50: > 100 µM
Cytochrome P450 2C9 [6]
  IC50: > 100 µM
Cytochrome P450 2C19 [7]
  IC50: > 100 µM
Cytochrome P450 2E1
  IC50: > 100 µM
Cytochrome P450 3A4
  IC50: > 100 µM
Cytochrome P450 1A2 [8]
  IC50: > 100 µM
Cytochrome P450 2C8
  IC50: > 100 µM
Cytochrome P450 3A5 [9]
  IC50: > 100 µM
Cytochrome P450 1A2 [10]
  IC50: > 100 µM
Cytochrome P450 2A6
  IC50: > 100 µM
Cytochrome P450 2C9 [11]
  IC50: > 100 µM
Cytochrome P450 2C19 [12]
  IC50: > 100 µM
Cytochrome P450 3A5 [13]
  IC50: > 100 µM
[14]
  AUC: 3600 µg·h/mL
[15]
  AUC: 34.9 µg·h/mL
Mus musculus
  Activity: 3.1%
